# Results reported in US7776827B2 (ImmuneRegen Biosciences, Inc., priority 2007, dated 2010).
# How the values were obtained:
# Assay type in all cases: cell-based
# [1] = test system: CFU-Mk (platelet precursors); assay: Colony forming unit (CFU) assay, human bone marrow cells (Example 6); settings: in the presence of substance P
# Source text: (§1) As stem cells differentiate in response to growth factors, they form a colony of cells with distinct morphologies that can be visualized using a microscope. This study examined the formation of three different progenitor cell populations, erythrocytes, platelets and granulocytes/macrophages.
# (§2) Bone marrow aspirates were obtained from three healthy donors between 18 and 35 years of age following appropriate guidelines and protocols. Bone marrow mononuclear cells were isolated using a Ficoll-Hypaque density gradient, separating red blood cells from the others. Cells from each donor were processed independently and used for setting up individual experiments to assess the effects, if any, of donor variability.
# (§3) Cells (1×10^5) were plated in duplicate onto 35 mm tissue culture plates for each condition tested and set up as described in Rameshwar et al. 1993, Blood. 81:2, 391-398. Erythroid and granulocyte/macrophage cultures were plated using methylcellulose and megakaryocyte cultures (platelet precursors) used a collagen-based support (StemCell Technologies, Vancouver, Canada, catalogue #04973). […] CP 99,994 (Pfizer) was used as a neurokinin-1 receptor antagonist and SR 48968 (Sanofi) was used as a neurokinin-2 receptor antagonist.
# Cultures were set up with limited cytokines and growth factors which would promote differentiation of one progenitor per plate. […]
# BFU-E = assay: as above; settings: FIG. 1; control = zero level
# Source text: as §1, §2
# as §3, with “antagonist. […]” for “antagonist.”
# CFU-E = assay: as above; settings: FIG. 2; control = zero level
# Source text: as §1, §2
# as §3, with “antagonist. […]” for “antagonist.”
# [2] = test system: human bone marrow-derived hematopoietic cell populations; assay: CFC differentiation and ATP proliferation assays, overall statements (Example 4)
# Experimental: The compound was dissolved in 1 ml of Iscove's Modified Dulbecco's Medium (IMDM) and a serial dose response prepared in single log doses so that the final dose in culture ranged from 1 nM to 1×10^−16 M. All working dilutions were performed in IMDM.
# Starting with human bone marrow aspirate, the mononuclear cell (MNC) fraction was separated from the whole bone marrow using Ficoll-Paque density gradient centrifugation. […] The cell concentration was adjusted so that the final cell concentration in culture was 10,000 cells/well.
# Human bone marrow MNC was dissolved in IMDM and cultured at a concentration of 10,000 cell/well in a CAMEO™-96 Master Mix (HemoGenix, Inc., Colorado Springs, Colo.). […]
# Prior to processing all 96-well plates, the total colony counts/well were manually enumerated by microscopy. The mean, standard deviation and percent coefficient of variation was calculated for all groups, transposed and plotted. The intracellular ATP (iATP) concentration was measured after manual enumeration. The output of the luminometer is non-standardized Relative Luminescence Units (RLU). […] This allowed the RLU values to be automatically calculated into standardized ATP (μM) units. For both the RLU and ATP values derived from each well, the luminometer software calculated the mean, standard deviation and percent coefficient of variation.
# [3] = test system: seven human-derived hematopoietic cell populations; assay: CFC assay, three donors, overall statements (Example 5); settings: highest doses (1 nM)
# Experimental: Compound was dissolved in 1 ml of Iscove's Modified Dulbecco's Medium (IMDM) and a serial dose response was prepared in single log doses so that the final dose in culture ranged from 1 nanoMolar (nM) to 1×10^−16 M. All working dilutions were performed in IMDM. Cell cultures from each donor were started at different times and a fresh solution of HOMSPERA® was prepared for each individual experiment.
# Starting with human bone marrow aspirate, the mononuclear cell (MNC) fraction from each aspirate was separated from whole bone marrow using Ficoll-Paque density gradient centrifugation.
# The colony-forming cell (CFC) assay was performed using optimal growth factor/cytokine concentrations. The reagents and conditions were similar to those used in Example 4, except that no ATP measurements were performed. The MNC fraction from each bone marrow donor was dissolved in IMDM and cultured at a concentration of 5,000 cells/well in a Culture Master Mix (HemoGenix, Inc., Colorado Springs, Colo.). […]
# The mean, standard deviation and percent coefficient of variation was calculated for all groups, transposed and plotted as a function of donor. The percent from control values were calculated and also plotted as a function of donor. […]
molecule,measurement,setting,value
"COc1ccccc1CN[C@H]1CCCN[C@H]1c1ccccc1 [CP-99,994]",effect of receptor antagonist on substance P stimulation of platelet colony formation,[1],blocks the stimulatory activity of substance P
Arg Pro Lys Pro Gln Gln Phe Phe Gly Leu Met [substance P],"BFU-E colony formation, increase from control values",BFU-E,~60%
same,"CFU-E colony formation, enhancement from control values",CFU-E,about 70%
CC(=O)NC1(c2ccccc2)CCN(CC[C@H](CN(C)C(=O)c2ccccc2)c2ccc(Cl)c(Cl)c2)CC1 [SR48968],effect of receptor antagonist on substance P stimulation of platelet colony formation,[1],showed no effect on substance P activity in enhancing platelet colony formation
CC(C)C[C@H](NC(=O)CN(C)C(=O)[C@H](Cc1ccccc1)NC(=O)[C@H](Cc1ccccc1)NC(=O)[C@H](CCC(N)=O)NC(=O)[C@H](CCC(N)=O)NC(=O)[C@@H]1CCCN1C(=O)[C@H](CCCCN)NC(=O)[C@@H]1CCCN1C(=O)[C@@H](N)CCCNC(=N)N)C(=O)N[C@@H](CCS(C)(=O)=O)C(N)=O [HOMSPERA®],toxicity,"[2]; B-CFC and T-CFC, levels tested",do not demonstrate toxicity at the levels tested
same,cytotoxicity,"[2]; most of populations, 14 days, 1 nM to 1×10^−16 M",apparent absence of distinct cytotoxicity
same,toxicity,[3],no apparent toxicity at the highest doses
